Consider 32 compounds from patent publication US8785468B2, “Phenylalanine amide derivatives useful for treating insulin-related diseases and conditions” (Amgen Inc., priority 2009, dated 2014).

Counter-ions that a name gives are not always drawn.

The target in the experiment is T1, human receptor found in pancreatic islet cells (Homo sapiens, UniProt Q7Z601).
T1 sequence (Q7Z601 1-462): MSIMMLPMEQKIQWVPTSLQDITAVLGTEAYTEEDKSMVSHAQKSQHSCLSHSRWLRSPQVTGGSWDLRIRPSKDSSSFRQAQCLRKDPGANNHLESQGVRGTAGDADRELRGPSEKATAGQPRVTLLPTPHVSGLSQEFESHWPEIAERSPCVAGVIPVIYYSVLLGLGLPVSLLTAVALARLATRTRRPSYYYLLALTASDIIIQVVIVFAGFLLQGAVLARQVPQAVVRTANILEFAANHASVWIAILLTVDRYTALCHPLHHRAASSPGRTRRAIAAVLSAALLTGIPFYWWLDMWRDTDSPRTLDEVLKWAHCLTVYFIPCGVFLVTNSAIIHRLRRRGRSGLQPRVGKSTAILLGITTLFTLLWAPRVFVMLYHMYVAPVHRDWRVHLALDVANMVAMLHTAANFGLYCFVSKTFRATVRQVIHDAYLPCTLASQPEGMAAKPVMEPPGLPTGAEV
Nature of the experiment: Activation of intracellular IP3 signaling in transfected cells (Activation Assay). In kind it is cell-based. Conditions: calculated from IP3 concentration measurements in cells transfected with the human receptor. As to the method:
Table 12 provides exemplary compounds that were prepared and assessed, following protocols known to those of skilled in the art, for activation of intracellular inositol trisphosphate (IP3) signaling pathways that lead to elevation of intracellular calcium concentration. EC50 values provided in Table 12 were calculated from IP3 concentration measurements in cells transfected with a human receptor found in pancreatic islet cells, inter alia.
Usually EC50 stands for the concentration that produces a half-maximal response. Turning to `Cn1nc(-c2ccncc2)cc1NC(=O)[C@H](Cc1ccccc1)NCc1ccc(F)cn1` [Example 17.4, (S)-2-((5-Fluoropyridin-2-yl)methylamino)-N-(1-methyl-3-(pyridin-4-yl)-1H-pyrazol-5-yl)-3-phenylpropanamide], the EC50 is less than 50 nM.

For the compound `CCn1nc(-c2ccncc2)cc1NC(=O)[C@H](Cc1ccc(F)cc1)NCc1cscn1` [Example 20.1, (S)—N-(1-ethyl-3-(pyridine-4-yl)-1H-pyrazol-5-yl)-3-(4-fluorophenyl)-2-(thiazol-4-ylmethlamino)propanamide], the EC50 was less than 50 nM.

Turning to `NC(=O)c1cc(-c2ccncc2)cc2c1CCN2C(=O)[C@H](Cc1ccccc1)NCc1cscn1` [Example 60, (S)-1-(3-Phenyl-2-(thiazol-4-ylmethylamino)propanoyl)-6-(pyridin-4-yl)indoline-4-carboxamide], the EC50 is 100 to 1000 nM.

Take `COC(=O)c1cc(-c2ccncc2)cc2c1CCN2C(=O)[C@H](Cc1ccc(F)cc1)NCc1cscn1` [Example 54.5, (S)-Methyl 1-(3-(4-fluorophenyl)-2-(thiazol-4-ylmethylamino)propanoyl)-6-(pyridin-4-yl)indoline-4-carboxylate]: the EC50 is 50 to 100 nM.

For the compound `O=C(Nc1cnc(-c2ccncc2)s1)[C@H](Cc1ccc(F)cc1)NCc1cscn1` [Example 5.2, (S)-3-(4-Fluorophenyl)-N-(2-(pyridin-4-yl)thiazol-5-yl)-2-(thiazol-4-ylmethylamino)propanamide], the concentration for a half-maximal effect (EC50) is 50 to 100 nM.

With `CNc1cc(-c2cc(NC(=O)[C@H](Cc3ccc(F)cc3)NCc3c[nH]nn3)[nH]n2)ccn1` [Example 18.2, (2S)-2-((1H-1,2,3-triazol-4-yl)methylamino)-3-(4-fluorophenyl)-N-(3-(2-(methylamino)pyridin-4-yl)-1H-pyrazol-5-yl)propanamide], the EC50 was less than 50 nM.

Take `O=C(Nc1cccc(-c2cc[nH]n2)c1)[C@H](Cc1ccccc1)NCc1cscn1` [Example 12, (2S)—N-(3-(1H-pyrazol-3-yl)phenyl)-3-phenyl-2-(thiazol-4-ylmethylamino)propanamide]: the EC50 is 50 to 100 nM.

Take `Cc1cc(-c2cc(NC(=O)[C@H](Cc3ccc(F)cc3)NCC(=O)O)n(C)n2)ccn1` [Example 16.2, 2-((S)-3-(4-Fluorophenyl)-1-(1-methyl-3-(2-methylpyridin-4-yl)-1H-pyrazol-5-ylamino)-1-oxopropan-2-ylamino)acetic acid dihydrochloride]: the EC50 is 50 to 100 nM.

`N#Cc1cc(-c2ccncc2)cc2c1CCN2C(=O)[C@H](Cc1ccccc1)NCc1cscn1` [Example 53, (S)-1-(3-Phenyl-2-(thiazol-4-ylmethylamino)propanoyl)-6-(pyridin-4-yl)indoline-4-carbonitrile]: the EC50 was 100 to 1000 nM.

Take `O=C(Nc1cccc(-c2cn[nH]c2)c1)[C@H](Cc1ccccc1)NCc1cscn1` [Example 33, (2S)—N-(3-(1H-Pyrazol-4-yl)phenyl)-3-phenyl-2-(thiazol-4-ylmethylamino)propanamide]: the EC50 was 100 to 1000 nM.

Take `CCC(N[C@@H](Cc1ccccc1)C(=O)Nc1cccc(-c2ccncc2)c1)c1ccccn1` (stereo partly drawn) [Example 34.3, (2S)-3-Phenyl-2-(1-(pyridin-2-yl)propylamino)-N-(3-(pyridin-4-yl)phenyl)propanamide]: the concentration giving a half-maximal response (EC50) was 50 to 100 nM.

For the compound `Cc1cc(-c2nc(C)c(NC(=O)[C@H](Cc3ccc(F)cc3)NCc3cscn3)s2)ccn1` [Example 22, (2S)-3-(4-Fluorophenyl)-N-(4-methyl-2-(2-methylpyridin-4-yl)thiazol-5-yl)-2-(thiazol-4-ylmethylamino)propanamide], the EC50 is 50 to 100 nM.

`COC(=O)C1CN(Cc2cc(NC(=O)[C@H](Cc3ccccc3)NCc3cscn3)cc(-c3ccnc(C)c3)c2)C1` [Example 79]: the EC50 is 100 to 1000 nM.

Take `COC(=O)c1cc(-c2ccncc2)cc2c1CCN2C(=O)[C@H](Cc1ccccc1)N[C@@H](C)c1ccccn1` [Example 54.2, Methyl 1-((S)-3-phenyl-2-((S)-1-(pyridin-2-yl)ethylamino)propanoyl)-6-(pyridin-4-yl)indoline-4-carboxylate TFA salt]: the EC50 is 100 to 1000 nM.

As to `CC(C)(C)OC(=O)c1cc(NC(=O)[C@H](Cc2ccccc2)NC2(c3ccccn3)CC2)cc(-c2ccncc2)c1` [Example 73, (S)— tert-Butyl 3-(3-phenyl-2-(1-(pyridin-2-yl)cyclopropylamino)propanamido)-5-(pyridin-4-yl)benzoate], the EC50 is 100 to 1000 nM.

For the compound `O=C(Nc1cccc(-c2ccncc2)c1)[C@H](Cc1ccccc1)NCCC1CCOCC1` [Example 34.1, (S)-3-Phenyl-N-(3-(pyridin-4-yl)phenyl)-2-(2-(tetrahydro-2H-pyran-4-yl)ethylamino)propanamide], the EC50 is 100 to 1000 nM.

In the case of `CCn1nc(-c2ccnc(NC)c2)cc1NC(=O)[C@H](Cc1ccc(F)cc1)NCc1c[nH]nn1` [Example 31.2, (2S)-2-((1H-1,2,3-triazol-4-yl)methylamino)-N-(1-ethyl-3-(2-(methylamino)pyridin-4-yl)-1H-pyrazol-5-yl)-3-(4-fluorophenyl)propanamide], the 50% effective concentration (EC50) was less than 50 nM.

As for `O=C(Nc1cccc(-c2ccncc2)c1)[C@H](Cc1ccccc1)NCC1CCOC1` (stereo partly drawn) [Example 34.11, (2S)-3-Phenyl-N-(3-(pyridin-4-yl)phenyl)-2-((tetrahydrofuran-3-yl)methylamino)propanamide TFA salt], the EC50 is 1000 to 10000 nM.

Turning to `Cn1nc(-c2ccncc2)cc1NC(=O)[C@H](Cc1ccccc1)NCC1CC1` [Example 17.6, (S)-2-(Cyclopropylmethylamino)-N-(1-methyl-3-(pyridin-4-yl)-1H-pyrazol-5-yl)-3-phenylpropanamide], the EC50 was 100 to 1000 nM.

For the compound `CNc1cc(-c2cc(NC(=O)[C@@H](N)Cc3ccc(F)cc3)n(C(C)C)n2)ccn1` [Example 43.1, (2S)-2-Amino-3-(4-fluorophenyl)-N-(1-isopropyl-3-(2-(methylamino)pyridin-4-yl)-1H-pyrazol-5-yl)propanamide], the EC50 is 100 to 1000 nM.

For the compound `CC(C)(C(=O)O)c1cc(NC(=O)[C@H](Cc2ccccc2)NC[C@H]2CCCO2)cc(-c2ccncc2)c1` [Example 63.2], the EC50 is 1000 to 10000 nM.

On to `COc1ncc(-c2cc[nH]n2)cc1NC(=O)[C@H](Cc1ccccc1)NC1(c2cscn2)CC1` [Example 14.2], for which the EC50 is 100 to 1000 nM.

Turning to `O=C(Nc1cccc(-c2ccc(F)cc2)c1)[C@H](Cc1ccccc1)NCc1cscn1` [Example 44], the EC50 was 100 to 1000 nM.

`COc1ncc(-c2ccncc2)cc1NC(=O)[C@H](Cc1ccccc1)NC1(c2csc(C)n2)CC1` [Example 35.3, (S)—N-(2-Methoxy-5-(pyridin-4-yl)pyridin-3-yl)-2-(1-(2-methylthiazol-4-yl)cyclopropylamino)-3-phenylpropanamide]: the concentration for a half-maximal effect (EC50) is 50 to 100 nM.

For `Cc1nnc(-c2cc(-c3ccncc3)cc3c2CCN3C(=O)[C@H](Cc2ccccc2)NCc2cscn2)[nH]1` [Example 69, (2S)-1-(4-(5-Methyl-4H-1,2,4-triazol-3-yl)-6-(pyridin-4-yl)indolin-1-yl)-3-phenyl-2-(thiazol-4-ylmethylamino)propan-1-one], the EC50 was 50 to 100 nM.

As to `O=C(O)CN[C@@H](Cc1ccccc1)C(=O)Nc1cc(-c2ccncc2)nn1CC(F)(F)F` [Example 24, (S)-2-(1-Oxo-3-phenyl-1-(3-(pyridin-4-yl)-1-(2,2,2-trifluoroethyl)-1H-pyrazol-5-ylamino)propan-2-ylamino)acetic acid], the EC50 is less than 50 nM.

Regarding `CNc1cc(-c2cc(NC(=O)[C@H](Cc3ccc(F)cc3)NCc3cscn3)n(CCO)n2)ccn1` [Example 30, (2S)-3-(4-Fluorophenyl)-N-(1-(2-hydroxyethyl)-3-(2-(methylamino)pyridin-4-yl)-1H-pyrazol-5-yl)-2-(thiazol-4-ylmethylamino)propanamide], the EC50 is 50 to 100 nM.

With `Cn1cc(-c2ccc3c(c2)N(C(=O)[C@@H](N)Cc2ccccc2)CC3)cn1` [Example 82, (2S)-2-Amino-1-(6-(1-methyl-1H-pyrazol-4-yl)indolin-1-yl)-3-phenylpropan-1-one hydrochloride], the EC50 was 1000 to 10000 nM.

For the compound `COc1ncc(-c2ccn(C)n2)cc1NC(=O)[C@H](Cc1ccccc1)NC1(c2cscn2)CC1` [Example 19.2], the EC50 was 100 to 1000 nM.

`O=C(Nc1cc(-c2ccncc2)cc(C(F)(F)C(=O)O)c1)[C@H](Cc1ccccc1)NCc1cscn1` [Example 52, (S)-2,2-difluoro-2-(3-(3-phenyl-2-(thiazol-4-ylmethylamino)propanamido)-5-(pyridin-4-yl)phenyl)acetic acid]: the concentration for a half-maximal effect (EC50) is 100 to 1000 nM.

In the case of `CC(C)n1nc(-c2ccncc2)cc1NC(=O)[C@H](Cc1ccc(Cl)cc1)NCC(=O)O` [Example 29, (S)-2-(3-(4-Chlorophenyl)-1-(1-isopropyl-3-(pyridin-4-yl)-1H-pyrazol-5-ylamino)-1-oxopropan-2-ylamino)acetic acid], the EC50 is 50 to 100 nM.

Take `COC(=O)c1cc(-c2ccncc2)cc2c1CCN2C(=O)[C@H](Cc1ccc(F)cc1)NCc1cc[nH]n1` [Example 54.6, (S)-Methyl 1-(2-((1H-pyrazol-3-yl)methylamino)-3-(4-fluorophenyl)propanoyl)-6-(pyridin-4-yl)indoline-4-carboxylate]: the EC50 was 50 to 100 nM.
